Experimental data reported in ChEMBL document CHEMBL5214957.

Legend:
Format in all cases: cell-based
[1] = target: T1, Potassium channel subfamily T member 1 (Homo sapiens, UniProt Q5JUK3); experiment: Activation of wild-type human Slack expressed in HEK293 cells measured by thallium flux assay
T1 sequence (Q5JUK3 whole entry): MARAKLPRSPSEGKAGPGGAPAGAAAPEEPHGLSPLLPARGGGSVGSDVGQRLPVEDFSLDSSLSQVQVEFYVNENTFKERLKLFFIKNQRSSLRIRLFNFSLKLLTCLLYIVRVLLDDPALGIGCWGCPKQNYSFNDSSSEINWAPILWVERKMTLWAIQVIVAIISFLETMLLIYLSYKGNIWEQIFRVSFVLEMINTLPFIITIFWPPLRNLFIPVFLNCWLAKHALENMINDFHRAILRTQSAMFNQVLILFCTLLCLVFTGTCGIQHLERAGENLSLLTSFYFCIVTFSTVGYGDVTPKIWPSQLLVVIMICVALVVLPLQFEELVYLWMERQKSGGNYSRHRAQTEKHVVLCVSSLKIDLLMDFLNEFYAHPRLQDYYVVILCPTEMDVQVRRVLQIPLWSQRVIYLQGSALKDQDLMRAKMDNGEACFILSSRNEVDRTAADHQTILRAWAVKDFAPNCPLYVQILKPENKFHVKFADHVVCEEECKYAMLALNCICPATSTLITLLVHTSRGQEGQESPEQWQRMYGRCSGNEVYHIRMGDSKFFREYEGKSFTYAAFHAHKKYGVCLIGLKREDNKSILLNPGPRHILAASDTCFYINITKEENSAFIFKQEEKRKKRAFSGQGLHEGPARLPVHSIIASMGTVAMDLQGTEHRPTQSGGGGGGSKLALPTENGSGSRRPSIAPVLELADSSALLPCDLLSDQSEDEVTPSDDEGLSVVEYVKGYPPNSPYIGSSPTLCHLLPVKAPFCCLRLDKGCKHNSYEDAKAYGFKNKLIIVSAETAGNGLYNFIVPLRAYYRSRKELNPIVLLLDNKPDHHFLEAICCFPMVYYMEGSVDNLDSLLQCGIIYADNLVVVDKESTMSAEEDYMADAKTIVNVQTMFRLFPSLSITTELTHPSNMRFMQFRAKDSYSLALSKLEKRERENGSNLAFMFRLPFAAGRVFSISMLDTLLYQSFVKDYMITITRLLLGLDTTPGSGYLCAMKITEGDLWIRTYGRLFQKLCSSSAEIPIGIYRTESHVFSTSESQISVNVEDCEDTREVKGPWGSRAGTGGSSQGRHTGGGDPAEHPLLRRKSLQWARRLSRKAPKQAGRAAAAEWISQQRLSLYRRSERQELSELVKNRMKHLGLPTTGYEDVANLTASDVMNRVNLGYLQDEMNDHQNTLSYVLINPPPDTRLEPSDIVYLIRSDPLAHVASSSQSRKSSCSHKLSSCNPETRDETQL

[2] = target: T1, Potassium channel subfamily T member 1; experiment: Inhibition of wild-type human Slack expressed in HEK293 cells measured by thallium flux assay
[3] = Inhibition of human Slack A934T mutant expressed in HEK293 cells measured by thallium flux assay
[4] = target: T2, Potassium channel subfamily T member 2 (Homo sapiens, UniProt Q6UVM3); experiment: Inhibition of Slick (unknown origin) expressed in HEK293 cells measured by thallium flux assay
T2 sequence (Q6UVM3 whole entry): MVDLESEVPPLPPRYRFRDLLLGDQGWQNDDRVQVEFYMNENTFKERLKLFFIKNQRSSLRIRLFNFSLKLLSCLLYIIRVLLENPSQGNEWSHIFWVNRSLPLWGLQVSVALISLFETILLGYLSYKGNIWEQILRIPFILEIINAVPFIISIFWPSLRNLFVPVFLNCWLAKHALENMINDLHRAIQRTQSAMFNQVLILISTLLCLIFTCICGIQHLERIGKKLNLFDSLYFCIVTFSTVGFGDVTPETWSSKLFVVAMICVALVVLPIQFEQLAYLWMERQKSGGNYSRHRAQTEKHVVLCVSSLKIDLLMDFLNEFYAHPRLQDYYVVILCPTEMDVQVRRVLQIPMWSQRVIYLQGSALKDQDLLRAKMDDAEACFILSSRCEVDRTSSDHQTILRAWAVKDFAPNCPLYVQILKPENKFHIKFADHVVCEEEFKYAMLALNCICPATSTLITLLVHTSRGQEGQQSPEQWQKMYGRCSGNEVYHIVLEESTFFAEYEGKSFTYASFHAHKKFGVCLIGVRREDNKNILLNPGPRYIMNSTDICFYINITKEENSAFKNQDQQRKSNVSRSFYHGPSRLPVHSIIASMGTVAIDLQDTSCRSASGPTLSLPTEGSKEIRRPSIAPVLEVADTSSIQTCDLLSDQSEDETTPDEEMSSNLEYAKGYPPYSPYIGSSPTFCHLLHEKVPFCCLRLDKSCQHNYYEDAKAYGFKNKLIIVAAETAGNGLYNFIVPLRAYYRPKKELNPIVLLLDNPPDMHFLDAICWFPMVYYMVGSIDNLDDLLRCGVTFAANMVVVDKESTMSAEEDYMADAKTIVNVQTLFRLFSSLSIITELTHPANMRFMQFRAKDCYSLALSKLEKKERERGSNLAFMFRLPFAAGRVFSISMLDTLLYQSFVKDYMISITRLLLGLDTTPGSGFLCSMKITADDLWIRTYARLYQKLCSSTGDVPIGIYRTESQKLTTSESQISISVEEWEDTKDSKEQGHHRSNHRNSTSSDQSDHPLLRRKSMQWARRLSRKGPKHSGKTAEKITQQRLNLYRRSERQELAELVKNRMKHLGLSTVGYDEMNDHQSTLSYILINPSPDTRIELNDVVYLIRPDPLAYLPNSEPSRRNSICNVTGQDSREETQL

[5] = target: T3, Calcium-activated potassium channel subunit alpha-1 (Homo sapiens, UniProt Q12791); experiment: Inhibition of Maxi-K (unknown origin) expressed in HEK293 cells measured by thallium flux assay
T3 sequence (Q12791 whole entry): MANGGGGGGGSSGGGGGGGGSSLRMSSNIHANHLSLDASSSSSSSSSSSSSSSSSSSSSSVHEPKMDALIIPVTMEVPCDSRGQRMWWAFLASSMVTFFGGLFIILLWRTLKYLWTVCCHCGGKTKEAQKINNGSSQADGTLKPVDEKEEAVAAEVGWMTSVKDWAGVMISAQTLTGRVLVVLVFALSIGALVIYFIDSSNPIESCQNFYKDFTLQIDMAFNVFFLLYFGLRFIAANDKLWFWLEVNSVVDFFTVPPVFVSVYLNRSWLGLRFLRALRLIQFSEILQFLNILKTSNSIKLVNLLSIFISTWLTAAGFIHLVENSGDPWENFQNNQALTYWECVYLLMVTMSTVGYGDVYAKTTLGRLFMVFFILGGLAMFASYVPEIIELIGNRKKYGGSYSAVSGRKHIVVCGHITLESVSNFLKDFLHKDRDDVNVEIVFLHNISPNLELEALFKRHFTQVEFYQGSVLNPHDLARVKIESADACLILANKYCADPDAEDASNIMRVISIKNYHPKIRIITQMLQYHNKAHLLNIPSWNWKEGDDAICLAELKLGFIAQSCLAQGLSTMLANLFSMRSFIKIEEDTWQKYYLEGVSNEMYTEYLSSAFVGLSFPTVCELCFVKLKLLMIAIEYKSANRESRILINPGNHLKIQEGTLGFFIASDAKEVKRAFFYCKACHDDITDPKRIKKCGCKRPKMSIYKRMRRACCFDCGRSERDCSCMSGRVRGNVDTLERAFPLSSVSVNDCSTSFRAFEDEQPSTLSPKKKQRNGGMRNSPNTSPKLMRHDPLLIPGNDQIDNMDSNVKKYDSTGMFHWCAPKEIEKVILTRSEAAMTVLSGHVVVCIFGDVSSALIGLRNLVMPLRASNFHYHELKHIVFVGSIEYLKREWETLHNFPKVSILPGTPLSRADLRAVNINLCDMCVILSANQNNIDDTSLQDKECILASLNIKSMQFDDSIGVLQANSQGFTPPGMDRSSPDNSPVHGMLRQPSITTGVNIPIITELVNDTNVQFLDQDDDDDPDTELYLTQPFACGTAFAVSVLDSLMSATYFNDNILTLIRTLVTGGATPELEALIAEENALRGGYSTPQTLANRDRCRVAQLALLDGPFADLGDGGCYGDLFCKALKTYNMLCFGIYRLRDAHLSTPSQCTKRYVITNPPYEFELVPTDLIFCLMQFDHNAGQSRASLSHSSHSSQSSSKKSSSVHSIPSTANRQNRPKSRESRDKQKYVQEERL

[6] = target: T4, Potassium channel subfamily T member 2 (Homo sapiens) (UniProt Q6UVM3); experiment: Inhibition of Slick (unknown origin) expressed in HEK293 cells at 30 uM measured by thallium flux assay relative to control
T4 sequence (whole entry): T2 sequence (Q6UVM3 whole entry)

[7] = target: T1, Potassium channel subfamily T member 1; experiment: Inhibition of wild-type Slack (unknown origin) expressed in HEK293 cells measured by whole-cell electrophysiology assay
[8] = target: T3, Calcium-activated potassium channel subunit alpha-1; experiment: Inhibition of Maxi-K (unknown origin) expressed in HEK293 cells at 30 uM measured by thallium flux assay relative to control
[9] = Inhibition of Slack A934T mutant (unknown origin) expressed in HEK293 cells measured by whole-cell electrophysiology assay; conditions: Homo sapiens

In the case of `CC1CCN(S(=O)(=O)N2CCN(CC(=O)Nc3cccc(F)c3)CC2)CC1`, the EC50 [1] is reported as 4.6 µM.

With `Cc1ccc(NC(=O)CN2CCN(S(=O)(=O)N3CCC(C)CC3)CC2)cc1` the EC50 [1] was 4.1 µM.

`COc1ccc(F)cc1NC(=O)CN1CCN(S(=O)(=O)N2CCC(C)CC2)CC1` showed an IC50 [2] of 4.9 µM and an IC50 [3] of 2.3 µM.

For `COc1ccc(Cl)cc1NC(=O)[C@H](C)N1CCN(S(=O)(=O)N2CCC(C(F)(F)F)CC2)CC1`, the IC50 [4] was > 10 µM.

In the case of `COc1ccc(C)cc1NC(=O)CN1CCN(S(=O)(=O)N2CCC(C)CC2)CC1`, the IC50 [2] is reported as > 10 µM.

With `CCCC1CCN(C(=O)N2CCN(S(=O)(=O)N3CCN(CC(=O)Nc4cc(Cl)ccc4OC)CC3)CC2)CC1` the IC50 [2] was > 10 µM.

In the case of `COc1ccc(Cl)cc1NC(=O)CN1CCN(S(=O)(=O)N2CCN(S(=O)(=O)N3CCC(F)(F)C3)CC2)CC1`, the EC50 [1] is reported as > 10 µM.

With `COc1ccc(Br)cc1NC(=O)CN1CCN(S(=O)(=O)N2CCC(C)CC2)CC1` the IC50 [2] was 1.4 µM.

Work on `COc1ccc(Cl)cc1NC(=O)N1CCCN(S(=O)(=O)N2CCC(C)CC2)CC1` yielded an IC50 [2] of 6.2 µM.

In the case of `COc1ccc(Cl)cc1NC(=O)N1CC2(CCN(S(=O)(=O)N3CCC(C)CC3)CC2)C1`, the EC50 [1] is reported as > 10 µM.

`CCCOc1ccc(Cl)cc1NC(=O)CN1CCN(S(=O)(=O)N2CCC(C)CC2)CC1` gave an IC50 [2] of 4.3 µM and an IC50 [3] of 3.1 µM.

With `COc1ccc(Cl)cc1NC(=O)CN(C)CCN(C)S(=O)(=O)N1CCC(C)CC1` the IC50 [2] was > 10 µM.

For `COc1ccc(C(F)(F)F)cc1NC(=O)CN1CCN(S(=O)(=O)N2CCC(C)CC2)CC1`, the IC50 [4] was 4.1 µM and the IC50 [5] was > 10 µM.

`COc1ccc(Cl)cc1NC(=O)CN1CCN(S(=O)(=O)N2CCC(C)CC2)C[C@H]1C` showed an Efficacy [6] of 50%, an IC50 [7] of 1.7 µM and an IC50 [2] of 2.4 µM. The IC50 [3] was 1.1 µM, the Efficacy [8] was 32% and the IC50 [4] was > 10 µM. For the same compound, the IC50 [9] was 1.9 µM and the IC50 [5] was > 10 µM.

With `COc1ccc(Cl)cc1NC(=O)N1CC2(C1)CN(S(=O)(=O)N1CCC(C)CC1)C2` the IC50 [2] was > 10 µM.

With `COc1ccc(Cl)cc1NC(=O)CN1CCN(S(=O)(=O)N2CCN(C(=O)N3CCCCC3)CC2)CC1` the EC50 [1] was > 10 µM.

For `CC1CCN(S(=O)(=O)N2CCN(CC(=O)Nc3cc(Cl)ccc3F)CC2)CC1`, the EC50 [1] was 3.8 µM.

Compound `COc1ccc(Cl)cc1NC(=O)CN1CCN(S(=O)(=O)N2CCC(C)CC2)C[C@@H]1C` has an IC50 [2] of 3.5 µM and an IC50 [3] of 2.1 µM.

In the case of `COc1ccccc1NC(=O)CN1CCN(S(=O)(=O)N2CCC(C)CC2)CC1`, the IC50 [2] is reported as > 10 µM.

`COc1ccc(Cl)cc1NC(=O)CN1CCN(S(=O)(=O)N2CCC(C)CC2)CC1` gave an IC50 [7] of 1.7 µM, an IC50 [2] of 2.4 µM and an IC50 [3] of 1.4 µM. The IC50 [4] was > 10 µM and the IC50 [9] was 1.6 µM.

In the case of `COc1ccc(Cl)cc1NC(=O)CN1CCN(S(=O)(=O)N2CCC(C)CC2)[C@@H](C)C1`, the IC50 [2] is reported as > 10 µM.

For `COc1ccc(Cl)cc1NC(=O)CN1CCN(S(=O)(=O)N2CCN(C(=O)N3CCCCCC3)CC2)CC1`, the EC50 [1] was > 10 µM.

`CCOc1ccc(Cl)cc1NC(=O)CN1CCN(S(=O)(=O)N2CCC(C)CC2)CC1` gave an IC50 [2] of 7.1 µM.

With `COc1ccc(NC(=O)CN2CCN(S(=O)(=O)N3CCC(C)CC3)CC2)cc1` the EC50 [1] was > 10 µM.

With `COc1ccc(Cl)cc1NC(=O)CN1CCN(S(=O)(=O)N2CCC(C)CC2)[C@H](C)C1` the IC50 [2] was 13 µM.

In the case of `Cc1ccc(Cl)cc1NC(=O)CN1CCN(S(=O)(=O)N2CCC(C)CC2)CC1`, the IC50 [2] is reported as > 10 µM.

Work on `CC1CCN(S(=O)(=O)N2CCN(CC(=O)Nc3cc(Cl)ccc3OC(C)C)CC2)CC1` yielded an IC50 [2] of 5.1 µM.
